Results from patent US8790653B2, “Peptide inhibitors for mediating stress responses” (Yeda Research and Development Co. Ltd., priority 2004, dated 2014).
Where no end group is shown, it is not given here. [ ]: non-standard residue; d: D form.

Experiments:
L12 cells with p53 = assay: Hyperthermia-induced cell death in L12 cells with active p53 (trypan blue); format: cell-based; conditions: 2 hours at 42° C., peptide 100 μg/ml
Protocol: The selected candidate peptides were tested for their ability to interfere with the p53-mediated cellular stress response by testing their capacity to inhibit the response to hyperthermia of the L12 cell line (Wolf, 1984), which lacks endogenous p53 activity and had been stably transfected with the p53 gene or a control vector. In these cells, p53 activity induces growth arrest and cell survival rather than apoptosis in response to hyperthermia (Nitta, 1997).
The amount of cell death was assessed by staining the cells with the vital dye trypan blue (Sigma) and counting the ratio of dead/live cells per visual field with a light microscope.
incubation for 2 hours at 42° C. induced death of all cells that lacked p53 and, in contrast, transient growth arrest and survival of about 80% of the cells with active p53. Four peptides, designated Stressin-1 to −4 (for STress RESponse Specific peptide INhibitor), were identified that at concentrations of 100 μg/ml inhibited p53-mediated growth arrest after hyperthermia and induced death of almost all cells with active p53, which is the response of L12 cells that lack p53 activity (Table 1); the peptide sequences are shown in Table 2.

L12 cells = assay: Cisplatin-induced p53-mediated cell death of L12 cells (DNA content, propidium iodide, FACS); format: cell-based; conditions: 50 μM Cisplatin, 48 hours
Protocol: L12 cells were treated for 48 hours with 50 μM of the DNA-damaging agent Cisplatin and p53-mediated cell death was determined by measuring the DNA content of cells stained with propidium iodide (FIG. 1). Cells incubated in the absence of peptide responded to Cisplatin treatment with p53-mediated cell death.

[1] = system: primary hepatocyte cultures; assay: Ethanol toxic stress in primary hepatocyte cultures (trypan blue exclusion); format: cell-based; conditions: with 0.6% ethanol; 50 μM peptide; 48 hours
Protocol: (§1) To learn whether Stressin peptide may protect from toxic stress, primary hepatocyte cultures were incubated with or without ethanol at a concentration of 0.6%, and with 50 μM Stressin-1 or without peptide. After 48 hours, the numbers of dead and alive cells were determined by trypan blue exclusion (Table 3).

[2] = as above; format: cell-based; conditions: primary hepatocyte cultures
Protocol: as §1

BALB/c mice = assay: Whole body γ-irradiation of BALB/c mice (radiation disease); format: in vivo; conditions: 6.5 Gy, 500 μg/mouse intraperitoneally one hour after irradiation
Description: To test whether Stressin peptide may protect an organism from death by excessive p53 activation and tissue failure by subjecting BALB/c mice to whole body […] (6.5 Gy). A retro-inverso peptide was used to determine whether prolonged in vivo half-life would give an advantage (see Example 6); retro-inverso peptides are resistant to proteases and consist of D-amino acids in reversed order, resulting in an altered peptide backbone but unchanged orientation of the side chains (Van Regenmortel, 1998).
BALB/c mice were subjected to whole body γ-irradiation (6.5 Gy). One hour after irradiation, the mice received intraperitoneally either Stressin-1 (n=7; SEQ ID NO:1) or a modified, retro-inverso Stressin-1 peptide (n=7; SEQ ID NO:5), both at a concentration of 500 μg/mouse, or a sham injection with saline (n=6). The retro-inverso peptide was used to determine whether prolonged in vivo-half-life would give an advantage.

Which “Incidence of cell death induced by hyperthermia” value (“Incidence of cell death induced” for short) (L12 cells with p53) does the source give for DLSTDALHYRTA [Stressin-2] here?
Its value is 90%.

What about the “cells rescued from p53-mediated cell death” value (L12 cells) of the same substance?
Its value is 25%.

Which “Incidence of cell death induced” value (L12 cells with p53) does the source give for HPTNQQSLWRWP [Stressin-3] here?
Its value is 80%.

Which Survival of hepatocytes [1] does the source give for LPPLPYP [Stressin-1, LPPLPYP] here?
Its Survival of hepatocytes is 20%.

What about the viability at 48 h, 50 µM [2] of the same substance?
The viability at 48 h, 50 µM was 100%.

For “PYPLPPL ([dP][dY][dP][dL][dP][dP][dL]; also: retro-inverso) [modified Stressin-1 peptide, retro-inverso Stressin-1 peptide, D-amino acids in reversed order]”, which mice dead (BALB/c mice; after 17 days) is on record?
Its mice dead is 29%.

What about the “mice recovered from radiation disease” value (BALB/c mice; after 40 days) of the same substance?
The value was 57%.

For SSLSVDYPTRYP [Stressin-4], which “Incidence of cell death induced” value (L12 cells with p53) is on record?
Its value is 80%.
